Where two headings read alike, the source gives them in different places.
Biological target: human CB2R (Homo sapiens, UniProt P34972)
Assay: CB2R mediated modulation of cAMP synthesis
Assay type: cell-based
Method: B. CB2R Mediated Modulation of cAMP Synthesis:
Compounds of the invention were evaluated for their CB2 agonist or inverse agonistic activity in accordance with the following experimental method.
CHO cells expressing human CB2R (Euroscreen) were plated at a density of 5000 cells per well in 384 well plates and incubated overnight at 37° C. After removing the media, the cells were treated with test compounds diluted in stimulation buffer containing 1 mM IBMX, 0.25% BSA and 10 uM Forskolin. The assay was incubated for 30 minutes at 37° C. Cells were lysed and the cAMP concentration was measured using DiscoverX-XS cAMP kit, following the manufacturer's protocol. In this setting, agonists will decrease forskolin induced production of cAMP while inverse agonists will further increase forskolin induced production of cAMP. EC50 of agonists were calculated as follows. The maximal amount of cAMP produced by forskolin compared to the level of cAMP inhibited by 1 uM CP55940 is defined as 100%. […] Data was analyzed using a four-parameter logistic model. (Model 205 of XLfit 4.0).

[1] = CHO cells expressing human CB2R, inhibition of forskolin-stimulated cAMP synthesis, mean, read-out: CB2 CAMP @ EC50 nM (mean)

Chain of human CB2R (P34972 whole entry): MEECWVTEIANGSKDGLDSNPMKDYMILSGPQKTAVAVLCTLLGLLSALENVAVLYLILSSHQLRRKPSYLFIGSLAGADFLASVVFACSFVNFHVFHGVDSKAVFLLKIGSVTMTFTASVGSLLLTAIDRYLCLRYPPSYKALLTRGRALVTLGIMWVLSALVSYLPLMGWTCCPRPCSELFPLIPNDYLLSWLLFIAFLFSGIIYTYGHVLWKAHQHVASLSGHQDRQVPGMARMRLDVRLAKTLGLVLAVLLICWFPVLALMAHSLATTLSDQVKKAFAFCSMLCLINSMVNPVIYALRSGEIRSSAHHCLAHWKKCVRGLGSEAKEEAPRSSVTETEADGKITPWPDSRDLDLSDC

Structure (SMILES)	EC50 [nM]	EC50 [1] [nM]
CC(C)(C)c1cc(NC(=O)[C@@H]2CCCN2C(=O)N2CCS(=O)(=O)CC2)on1	97.1	
CCC(C)c1ccc(NC(=O)[C@@H]2CCC(=O)N2c2ncc(C(F)(F)F)cc2Cl)cc1 (stereo partly shown)	28.1	
O=C(NCCN1CCN(c2nccc(C(F)(F)F)n2)CC1)[C@@H]1CCCN1c1ccc(Cl)cc1	381	
CC(C)(C)c1nnc(NC(=O)[C@@H]2CCCN2C2CCCC2(C)C)s1 (stereo partly shown) [1-(2,2-Dimethyl-cyclopentyl)-pyrrolidine-2-carboxylic acid (5-tert-butyl-1,3,4-thiadiazol-2-yl)-amide]	445	
CC1(C)CC(CN2CCCC2C(=O)Nc2cc(C(C)(C)C)no2)CCO1 (stereo not shown) [1-(2,2-Dimethyl-tetrahydro-pyran-4-ylmethyl)-pyrrolidine-2-carboxylic acid (3-tert-butyl-isoxazol-5-yl)-amide]	7.1	
CC1CCCCC1N1CCC[C@H]1C(=O)Nc1nnc(C(C)(C)C)s1 (stereo partly shown) [1-(2-Methyl-cyclohexyl)-pyrrolidine-2-carboxylic acid (5-tert-butyl-1,3,4-thiadiazol-2-yl)-amide]	255	
Cn1nc(C(C)(C)C)cc1NC(=O)C1CCCN1c1ncc(C(F)(F)F)cc1Cl (stereo not shown) [1-(3-Chloro-5-trifluoromethyl-pyridin-2-yl)-pyrrolidine-2-carboxylic acid (5-tert-butyl-2-methyl-2H-pyrazol-3-yl)-amide]	112	
CC(C)(C)c1cc(NC(=O)C2CCCN2c2ncc(C(F)(F)F)cc2Cl)no1 (stereo not shown) [1-(3-Chloro-5-trifluoromethyl-pyridin-2-yl)-pyrrolidine-2-carboxylic acid (5-tert-butyl-isoxazol-3-yl)-amide]	0.0402	
O=C(Nc1ccc(C(F)(F)F)cn1)C1CCCN1c1ncc(C(F)(F)F)cc1Cl (stereo not shown) [1-(3-Chloro-5-trifluoromethyl-pyridin-2-yl)-pyrrolidine-2-carboxylic acid (5-trifluoromethyl-pyridin-2-yl)-amide]		23.2
CC(C)(C)c1cc(NC(=O)C2CCCN2c2ccc(Cl)cn2)no1 (stereo not shown) [1-(5-Chloro-pyridin-2-yl)-pyrrolidine-2-carboxylic acid (5-tert-butyl-isoxazol-3-yl)-amide]	0.364	
O=C(Nc1ccc(C(F)(F)F)cn1)C1CCCN1c1ccc(C(F)(F)F)cn1 (stereo not shown) [1-(5-Trifluoromethyl-pyridin-2-yl)-pyrrolidine-2-carboxylic acid (5-trifluoromethyl-pyridin-2-yl)-amide]	328	
CC(C)(C)c1cc(NC(=O)[C@@H]2CCCN2CC2CCCCO2)on1 (stereo partly shown) [1-(Tetrahydro-pyran-2-ylmethyl)-pyrrolidine-2-carboxylic acid (3-tert-butyl-isoxazol-5-yl)-amide]	0.172	
CC(C)N1CCCC1C(=O)Nc1cc(C(C)(C)C)on1 (stereo not shown) [1-isopropyl-pyrrolidine-2-carboxylic acid (5-tert-butyl-isoxazol-3-yl)-amide]	30.3	
CCC(C)N1CCC[C@H]1C(=O)Nc1nnc(C(C)(C)C)s1 (stereo partly shown) [1-sec-Butyl-pyrrolidine-2-carboxylic acid (5-tert-butyl-1,3,4-thiadiazol-2-yl)-amide]	390	
CC(C)(C)OC(=O)CCN1CCC[C@H]1C(=O)Nc1cc(C(C)(C)C)no1 [3-[(S)-2-(3-tert-Butyl-isoxazol-5-ylcarbamoyl)-pyrrolidin-l-yl]-propionic acid tert-butyl ester]		20
CC(C)(C)c1cc(NC(=O)[C@@H]2C[C@@H](O)CN2Cc2ccc(F)c(F)c2)on1 [(2S,4R)-1-(3,4-Difluoro-benzyl)-4-hydroxy-pyrrolidine-2-carboxylic acid (3-tert-butyl-isoxazol-5-yl)-amide]	6.88	
CC(C)(C)c1cc(NC(=O)[C@@H]2C[C@@H](O)CN2Cc2ccc(F)c(F)c2)no1 [(2S,4R)-1-(3,4-Difluoro-benzyl)-4-hydroxy-pyrrolidine-2-carboxylic acid (5-tert-butyl-isoxazol-3-yl)-amide]	12.3	
CC(C)(C)c1cc(NC(=O)[C@@H]2C[C@@H](O)CN2c2ncc(C(F)(F)F)cc2Cl)on1 [(2S,4R)-1-(3-Chloro-5-trifluoromethyl-pyridin-2-yl)-4-hydroxy-pyrrolidine-2-carboxylic acid (3-tert-butyl-isoxazol-5-yl)-amide]	3.25	
CC(C)(C)c1cc(NC(=O)[C@@H]2C[C@@H](O)CN2c2ncc(C(F)(F)F)cc2Cl)no1 [(2S,4R)-1-(3-Chloro-5-trifluoromethyl-pyridin-2-yl)-4-hydroxy-pyrrolidine-2-carboxylic acid (5-tert-butyl-isoxazol-3-yl)-amide]	5.04	

Structure (SMILES)	EC50 [nM]	EC50 [1] [nM]
O=C(NCC1CCCCC1)[C@@H]1C[C@@H](O)CN1C(=O)C1CCC(F)(F)CC1 [(2S,4R)-1-(4,4-Difluoro-cyclohexanecarbonyl)-4-hydroxy-pyrrolidine-2-carboxylic acid cyclohexylmethyl-amide]		432
CC(C)(C)c1cc(NC(=O)[C@@H]2C[C@@H](O)CN2c2ccc(Cl)cc2)no1 [(2S,4R)-1-(4-Chloro-phenyl)-4-hydroxy-pyrrolidine-2-carboxylic acid (5-tert-butyl-isoxazol-3-yl)-amide]	14.4	
CC(C)(CO)c1cc(NC(=O)[C@@H]2C[C@@H](O)CN2c2ccc(Cl)cc2)on1 [(2S,4R)-1-(4-Chloro-phenyl)-4-hydroxy-pyrrolidine-2-carboxylic acid [3-(2-hydroxy-1,1-dimethyl-ethyl)-isoxazol-5-yl]-amide]	196	
COCC(C)(C)c1cc(NC(=O)[C@@H]2C[C@@H](O)CN2c2ccc(Cl)cc2)on1 [(2S,4R)-1-(4-Chloro-phenyl)-4-hydroxy-pyrrolidine-2-carboxylic acid [3-(2-methoxy-1,1-dimethyl-ethyl)-isoxazol-5-yl]-amide]	87	
COCC(C)(C)c1cc(NC(=O)[C@@H]2C[C@@H](O)CN2c2ccc(Cl)cc2)no1 [(2S,4R)-1-(4-Chloro-phenyl)-4-hydroxy-pyrrolidine-2-carboxylic acid [5-(2-methoxy-1,1-dimethyl-ethyl)-isoxazol-3-yl]-amide]	80.9	
CC(C)(C)c1cc(NC(=O)[C@@H]2C[C@@H](O)CN2C2CCCCC2)no1 [(2S,4R)-1-Cyclohexyl-4-hydroxy-pyrrolidine-2-carboxylic acid (5-tert-butyl-isoxazol-3-yl)-amide]	4.69	
CC(C)(C)c1cc(NC(=O)[C@@H]2C[C@@H](O)CN2C2CCCC2)on1 [(2S,4R)-1-Cyclopentyl-4-hydroxy-pyrrolidine-2-carboxylic acid (3-tert-butyl-isoxazol-5-yl)-amide]	61.9	
CC(C)(C)c1cc(NC(=O)[C@@H]2C[C@@H](O)CN2C2CCCC2)no1 [(2S,4R)-1-Cyclopentyl-4-hydroxy-pyrrolidine-2-carboxylic acid (5-tert-butyl-isoxazol-3-yl)-amide]	23.2	
O=C(Nc1nc(-c2ccccc2)ns1)[C@@H]1C[C@@H](O)CN1c1ccc(C(F)(F)F)cn1 [(2S,4R)-4-Hydroxy-1-(5-trifluoromethyl-pyridin-2-yl)-pyrrolidine-2-carboxylic acid (3-phenyl-1,2,4-thiadiazol-5-yl)-amide]	357	
CC(C)(C)c1cc(NC(=O)[C@@H]2C[C@@H](O)CN2c2ccc(C(F)(F)F)cn2)on1 [(2S,4R)-4-Hydroxy-1-(5-trifluoromethyl-pyridin-2-yl)-pyrrolidine-2-carboxylic acid (3-tert-butyl-isoxazol-5-yl)-amide]	0.433	
CC(C)(C)c1cc(NC(=O)[C@@H]2C[C@@H](O)CN2c2ccc(C(F)(F)F)cn2)no1 [(2S,4R)-4-Hydroxy-1-(5-trifluoromethyl-pyridin-2-yl)-pyrrolidine-2-carboxylic acid (5-tert-butyl-isoxazol-3-yl)-amide]	161	
CC(C)(C)c1cc(NC(=O)[C@@H]2C[C@@H](O)CN2C2CCOCC2)on1 [(2S,4R)-4-Hydroxy-1-(tetrahydro-pyran-4-yl)-pyrrolidine-2-carboxylic acid (3-tert-butyl-isoxazol-5-yl)-amide]	328	
CCc1sc(NC(=O)[C@@H]2C[C@@H](O)CN2C2CCOCC2)nc1-c1ccccc1 [(2S,4R)-4-Hydroxy-1-(tetrahydro-pyran-4-yl)-pyrrolidine-2-carboxylic acid (5-ethyl-4-phenyl-thiazol-2-yl)-amide]	58.7	
CC(C)(C)c1cc(NC(=O)[C@@H]2C[C@@H](O)CN2C2CCOCC2)no1 [(2S,4R)-4-Hydroxy-1-(tetrahydro-pyran-4-yl)-pyrrolidine-2-carboxylic acid (5-tert-butyl-isoxazol-3-yl)-amide]	363	
CC1CC(NC(=O)[C@@H]2C[C@@H](O)CN2CC2CCOCC2)CC(C)(C)C1 (stereo partly drawn) [(2S,4R)-4-Hydroxy-1-(tetrahydro-pyran-4-ylmethyl)-pyrrolidine-2-carboxylic acid (3,3,5-trimethyl-cyclohexyl)-amide]	219	
O=C(Nc1nc(-c2ccccc2)ns1)[C@@H]1C[C@@H](O)CN1CC1CCOCC1 [(2S,4R)-4-Hydroxy-1-(tetrahydro-pyran-4-ylmethyl)-pyrrolidine-2-carboxylic acid (3-phenyl-1,2,4-thiadiazol-5-yl)-amide]	303	
CCCc1cc(NC(=O)[C@@H]2C[C@@H](O)CN2CC2CCOCC2)on1 [(2S,4R)-4-Hydroxy-1-(tetrahydro-pyran-4-ylmethyl)-pyrrolidine-2-carboxylic acid (3-propyl-isoxazol-5-yl)-amide]		248
O=C(Nc1nc(C2CCCCC2)cs1)[C@@H]1C[C@@H](O)CN1CC1CCOCC1 [(2S,4R)-4-Hydroxy-1-(tetrahydro-pyran-4-ylmethyl)-pyrrolidine-2-carboxylic acid (4-cyclohexyl-thiazol-2-yl)-amide]	150	
